Assay results reported in EP4248959A1, “PREPARATION FOR REDUCTION OF PATHOLOGICAL IRON OVERLOAD” (Dr. Franz Köhler Chemie GmbH, priority 2022, dated 2023).
“Also recorded” adds a separate entry of the source.

Columns and labels:
[1] = test system: CHO-K1 cells; test: In vitro micronucleus assay (cytokinesis-block, OECD 487, GLP) with and without S9 metabolic activation; type: cell-based; details: for concentration-related increase in frequency of MN: Chi-square test for trend; for micronucleus frequency / MN formation compared with the concurrent negative control: with and without metabolic activation, Chi-square test with Yates' correction
Description: The in vitro Micronucleus Assay (MNA) is a mutagenic test system for the detection of chemicals that induce the formation of small membrane-bound DNA fragments (micronuclei (MN)) in the cytoplasm of interphase cells. The MNA, used for regulatory purposes measures formation of chromosomal changes following DNA damage induced by the compounds under test, and is used to predict the genotoxic potential of pharmaceuticals, industrial chemicals, food additives and cosmetic ingredients.
MN originate from chromosome fragments or whole chromosomes that are not included in the main daughter nuclei during nuclear division. They reflect chromosome damage and may thus provide a marker of genotoxicity and even early-stage carcinogenesis. The most commonly used method in mammalian cells is the cytokinesis-block micronucleus (CBMN) assay. In the CBMN assay, MN are scored after a single cell division using binucleated cultured cells (accumulated using cytochalasin B) to eliminate the confounding effect of altered cell division kinetics on the MN index.
The formation of MN is a consequence of chromosomal breakage and/or spindle-fiber dysfunction induced by clastogens and/or aneuploidogens.
DMSO controls were run concurrently for each experiment.
Micronucleus frequency was analyzed in at least 2000 binucleate cells per concentration and control.
In order to assess genotoxic potential. […] Statistical analysis of the MN frequency and binucleate cells with MN was performed using the Chi-square test with Yates' correction. To examine the dose-response relationship in frequencies of the micronuclei Chi-square test for trend was performed.

[2] = test system: rat; test: Acute toxicology following intravenous administration of a single dose; type: in vivo
Procedure: 1. Acute toxicology of 2,3-dimethoxy-N-methylbenzhydroxamic acid (XIII) following intra venous administration of a single dose.
In the preliminary phase, 1 male and 1 female rat were dosed at 200 mg/kg and observed for a period of 7 days. […] A further group of 1 male and 1 female animals was dosed at a dose level of 300 mg/kg. […] Recovery occurred approximately 4 hours after dosing.
In the main phase of the study, 1 group of 5 male and 5 female animals was dosed at 300 mg/kg and observed for a period of 14 days. […] Recovery occurred by Day 3.

[3] = both, rat, in vivo, iv, 300 mg/kg
[4] = rat, single i.v. dose of 300 mg/kg body weight

SMILES	concentration-related increase in frequency of MN [1]	micronucleus frequency / MN formation compared with the concurrent negative control [1]	recovery [2, 3]	recovery after dosing [2, 3]	mortality ([2]; main phase, 5 male and 5 female rats, 300 mg/kg i.v. single dose, observed 14 days)	mortality ([2]; preliminary phase, 1 male and 1 female rat, 200 mg/kg i.v. single dose, observed 7 days)	necropsy examination ([2]; rat, in vivo)	clinical signs ([2]; rat, in vivo, iv, 200 mg/kg)	tolerability of dose level [2, 4]	toxic effect (overall conclusion) [2, 4]	dose-dependent genetic toxicity (summary) [1]	genotoxicity (MNA test result) ([1]; +S9 short, -S9 short and -S9 extended treatment)
O=P1(N(CCCl)CCCl)NCCCO1 (centres unmarked) [CP, cyclophosphamide, reference compound]	increased	significantly induced	–	–	–	–	–	–	–	–	–	–
COc1cccc(C(=O)N(C)O)c1OC [XIII, 2,3-dimethoxy-N-methylbenzhydroxamic acid]	–	–	≤ 3 days	approximately 4 hours	No mortality occurred	No mortality	No abnormalities	no clinical signs	reasonably tolerated	slight toxic effect	–	–
COc1ccc(C(=O)N(C)O)cc1OC [LK 614, 3,4-dimethoxy-N-methylbenzhydroxamic acid]	not observed; also recorded: no dose-related increase	did not exhibit statistically significant increase; also recorded: None of tested concentrations of test item, LK 614, exhibits a statistically significant increase	–	–	–	–	–	–	–	–	did not produce dose-dependent genetic toxicity	no genotoxicity
